The record followed here is ChEMBL document CHEMBL1155687, “Anthoptilides A-E, new Briarane diterpenes from the Australian sea pen Anthoptilum cf. kukenthali” (J Nat Prod, 2000).

The target in the assay is T1, Adenosine receptor A1 (Rattus norvegicus, UniProt P25099).
T1 sequence (P25099 whole entry): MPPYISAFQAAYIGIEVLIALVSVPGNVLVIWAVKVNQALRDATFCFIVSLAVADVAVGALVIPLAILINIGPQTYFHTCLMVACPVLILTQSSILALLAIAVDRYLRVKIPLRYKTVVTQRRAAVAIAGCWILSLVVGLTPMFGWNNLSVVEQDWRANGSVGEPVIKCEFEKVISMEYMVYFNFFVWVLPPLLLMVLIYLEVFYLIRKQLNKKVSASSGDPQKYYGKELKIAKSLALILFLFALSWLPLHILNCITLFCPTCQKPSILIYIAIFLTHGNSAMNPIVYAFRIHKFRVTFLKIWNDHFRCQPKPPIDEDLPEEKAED
Description: Displacement of [3H]DPCPX from adenosine A1 receptor in rat brain membrane. In kind it is cell membranes. A general note: Displacement assays read how much labelled ligand stays bound in the presence of the test substance.
`CCC(=O)O[C@@H]1CC/C(C)=C\[C@@H]2OC(=O)C(C)=C2C[C@H]2C(C)=CC(=O)[C@H](OC(C)=O)[C@]12C` [ANTHOPTILIDE C] had an IC50 of 3.1 µM.
Under `C/C=C(\C)C(=O)O[C@@H]1CC/C(C)=C\[C@@H]2OC(=O)C(C)=C2C[C@H]2C(C)=CC(=O)[C@H](OC(C)=O)[C@]12C` [ANTHOPTILIDE A] stands 420 µM; under `CCC(=O)O[C@@H]1CC/C(C)=C\[C@@H]2OC(=O)C(C)=C2C[C@H]2C(C)=C[C@H](OC(C)=O)[C@H](OC(C)=O)[C@]12C` [ANTHOPTILIDE E], 490 µM.
Consider `CC(=O)O[C@H]1C(=O)C=C(C)[C@@H]2CC3=C(C)C(=O)O[C@H]3/C=C(/C)CC[C@@H](OC(=O)c3ccccc3)[C@]21C` [ANTHOPTILIDE D], for which the IC50 was determined as 500 µM.
In the case of `CC(=O)O[C@H]1C(=O)C=C(C)[C@@H]2CC3=C(C)C(=O)O[C@H]3/C=C(/C)CC[C@@H](OC(=O)C(C)C)[C@]21C` [ANTHOPTILIDE B] it was 45 µM.

As a reminder, the IC50 is the point on the concentration scale where inhibition reaches its midpoint.
